pKi: −log10 of the molar value.

The pKi is −log10 of the Ki, conventionally taken in molar units.

One assay deals with T1, MMP-13 (Homo sapiens, UniProt P45452).
T1 construct: made in house; host or cells: baculovirus / insect cells
Nature of the assay: In vitro MMP inhibition, Ki determination (fluorogenic substrate II). It is filed as biochemical. Particulars: value not in parenthesis; read-out: MMP-13 Ki. A digest of the protocol:
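Ki determined with human recombinant MMP-13, baculovirus-expressed as proenzyme and activated with APMA. Fluorogenic MCA/Dpa substrate II at 4 μM (at or below Km) with low enzyme in Tris buffer pH 7.5 with CaCl2. Incubation was 1 h at room temperature, with fluorescence read at 330/420 nm.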

In another assay the target is T2, MMP-14 (Homo sapiens, UniProt P50281).
T2 construct: The catalytic domain enzyme was expressed in E. coli inclusion bodies, solubilized in urea; made in house
The description is as above. It is filed as biochemical. Conditions: value not in parenthesis; read-out: MMP-14 Ki. How it is done: Several hydroxamic acids and salts thereof were analyzed in in vitro assays to determine their ability to inhibit the MMP cleavage of peptide substrates. […] and IC50 constants were calculated from the assayed hydroxamic acid-MMP interactions.
Human recombinant MMP-1, MMP-2, MMP-9, MMP-13, and MMP-14 were used in this assay. All enzymes were prepared in Assignee's laboratories following usual laboratory procedures. Protocols for the preparation and use of these enzymes are available in the scientific literature. See, e.g., Enzyme Nomenclature (Academic Press, San Diego, Calif., 1992) (and the citations therein). See also, Freije et al., “Molecular cloning and expression of collagenase-3, a novel human matrix metalloproteinase produced by breast carcinomas,” J Biol. Chem., 269(24), 16766-16773 (1994).
The MMP-14 full length cDNA was provided by Dr. Gregory Goldberg of Washington University (St. Louis, Mo.). The catalytic domain enzyme was expressed in E. coli inclusion bodies, solubilized in urea, purified on a preparative […] reverse phase HPLC column, and then refolded in the presence of zinc acetate and purified for use.
All MMPs were activated using 4-aminophenylmercuric acetate (“APMA”, Sigma Chemical, St. Louis, Mo.) or trypsin. MMP-9 also was activated using human recombinant MMP-3 (purified in Assignee's laboratory following standard cloning and purification techniques).
Two fluorogenic, methoxycoumarin-containing polypeptide substrates were used in the MMP inhibition assays: [drawing 427] Here, “Dpa” is 3-(2,4-dinitrophenyl)-L-2,3-diaminopropionyl group, and “MCA” is 7-methoxycoumarin-4-yl acetyl. Substrate (I) was purchased from Baychem (Redwood City, Calif.), and substrate II was prepared Assignee's laboratory. Substrate I was used in the IC50 determination assays, while substrate II was used in the Ki determination assays. In the absence of MMP inhibitory activity, either substrate is cleaved at the Gly-Leu peptide bond. This cleavage separates the highly fluorogenic peptide from the 2,4-dinitrophenyl quencher, thus resulting in increase of fluorescent intensity.
The stock solutions of the assayed hydroxamic acids (or salts thereof) were prepared in 1% dimethyl sulfoxide (DMSO). These stock solutions were diluted in Buffer A (100 mM Tris-HCl, 100 mM NaCl, 10 mM CaCl2, 0.05% polyoxyethylene 23 lauryl ether, pH 7.5) to obtain solutions with different hydroxamic acid concentrations, i.e., assay solutions with different concentrations of the assayed MMP inhibitory compound. The experiment controls contained the same amount of Buffer A/DMSO as the assayed sample, but contained no hydroxamic acid (or salt thereof).
The assays from which the Ki determinations were made were performed as follows. The assayed hydroxamic acid samples were incubated in separate wells of untreated white polystyrene plates (Nunc Nalgene International, Rochester, N.Y.), and analyzed on a Tecan SpectraFlour Plus plate reader. The excitation wavelength was 330 nm, and the emission wavelength—420 nm. All samples (assayed hydroxamic acids and controls) were incubated in separate plate wells at room temperature for 1 hr in the presence of 4 μM of MMP substrate (II). In the absence of MMP inhibitory activity, substrate II was cleaved at the Gly-Leu bond resulting in an increase of relative fluorescence. Inhibition was observed as a reduced rate of this increase in relative fluorescence. The various hydroxamic acids were analyzed using a single low enzyme concentration with a single substrate concentration fixed at or below the Km. This protocol is a modification of method by Knight et al., FEBS Lett., 296(3), 263-266 (1992). Apparent inhibitory constants were determined by non-linear regression of reaction velocity as a function of inhibitor and enzyme concentration using Morrison's equation, as described by Kuzmic, Anal. Biochem. 286, 45-50 (2000).

Turning to `O=C(NO)C1(S(=O)(=O)N2CCN(c3ccc(OCCCC(F)(F)F)cc3)CC2)CCN(c2cnccn2)CC1` [Example 112], the negative logarithm of the Ki (pKi) on MMP-13 is 9.57; at MMP-14 it was 5.93.
On the same counts, the results for `CCCCOc1ccc(N2CCN(S(=O)(=O)C3(C(=O)NO)CCN(C(=O)OCCF)CC3)CC2)cc1` [Example 113] are 9.60 and 5.63.
In the case of `CCc1ccc(N2CCN(S(=O)(=O)C3(C(=O)NO)CCOCC3)CC2)nc1` [Example 114], the results for the pKi at MMP-13 and at MMP-14 were 9.13 and 7.01, respectively.
On to `CCCCOc1ccc(N2CCN(S(=O)(=O)C3(C(=O)NO)CCN(C(=O)OCC(F)(F)F)CC3)CC2)cc1` [Example 115], for which the pKi is 8.93 on MMP-13 and less than 5.00 on MMP-14.
`CC(C)(C)N1CCC(C(=O)NO)(S(=O)(=O)N2CCN(c3ccc(OCCCC(F)(F)F)cc3F)CC2)CC1` [Example 116]: the pKi on MMP-13 was 8.92; on MMP-14, 5.10.
As to `CCCCOc1ccc(N2CCN(S(=O)(=O)C3(C(=O)NO)CCN(C(=O)NCCOC)CC3)CC2)cc1` [Example 118], the pKi on MMP-13 is 9.37; on MMP-14, 5.59.
On the same counts, the results for `COCCN1CCC(C(=O)NO)(S(=O)(=O)N2CCN(c3ccc(OCC(F)(F)F)cc3)CC2)CC1` [Example 119] are 9.10 and 5.36.
On the same counts, the results for `CCCCOc1ccc(N2CCN(S(=O)(=O)C3(C(=O)NO)CCN(c4ccc(O)cc4)CC3)CC2)cc1` [Example 121] are 9.17 and less than 5.00.
On the same counts, the results for `O=C(c1cccnc1)N1CCC(C(=O)NO)(S(=O)(=O)N2CCN(c3ccc(OCCCC(F)(F)F)cc3)CC2)CC1` [Example 122] are 10.52 and 5.51.
Turning to `CCCCOc1ccc(N2CCN(S(=O)(=O)C3(C(=O)NO)CCN(C(=S)N(C)C)CC3)CC2)cc1` [Example 123], the figures for the negative-log Ki (pKi) at MMP-13 and at MMP-14 were 9.13 and 5.25, respectively.
In the case of `CCCCOc1ccc(N2CCN(S(=O)(=O)C3(C(=O)NO)CCN(C(=O)N4CCOCC4)CC3)CC2)cc1` [Example 124], the values for the negative logarithm of the Ki (pKi) on MMP-13 and at MMP-14 were 9.92 and less than 5.00, respectively.
In the same order, the values of `CCCCOc1ccc(N2CCN(S(=O)(=O)C3(C(=O)NO)CCN(c4ccc(C)cn4)CC3)CC2)cc1` [Example 125] are 8.78 and 5.56.
In the same order, the values of `CCCCOc1ccc(N2CCN(S(=O)(=O)C3(C(=O)NO)CCN4CCCC4C3)CC2)cc1F` (stereo not drawn) [Example 126] are 8.15 and less than 5.00.
In the same order, the values of `CCCCOc1ccc(N2CCN(S(=O)(=O)C3(C(=O)NO)CCN(C(=O)c4cc5ccccc5o4)CC3)CC2)cc1` [Example 127] are 8.21 and less than 5.00.
Take `CC(C)CCOc1ccc(N2CCN(S(=O)(=O)C3(C(=O)NO)CCN(C4CC4)CC3)CC2)cc1` [Example 128]: the values for the negative logarithm of the Ki (pKi) at MMP-13 and at MMP-14 were 9.68 and 5.27, respectively.
On to `CCCCOc1ccc(N2CCN(S(=O)(=O)C3(C(=O)NO)CCN(c4ccc(OCCOC)nn4)CC3)CC2)cc1` [Example 129], for which the pKi at MMP-13 was 9.52; on MMP-14 it was 5.89.
On the same counts, the results for `CCCCOc1ccc(N2CCN(S(=O)(=O)C3(C(=O)NO)CCN(c4ccc(C)nc4)CC3)CC2)cc1` [Example 131] are 9.21 and 5.44.
In the same order, the values of `O=C1c2ccccc2C(=O)N1CCCCc1ccc(N2CCN(S(=O)(=O)C3(C(=O)NO)CCOCC3)CC2)nc1` [Example 132] are 9.40 and 6.80.
In the same order, the values of `CC(C)CCc1ccc(N2CCN(S(=O)(=O)C3(C(=O)NO)CCOCC3)CC2)nc1` [Example 133] are 9.64 and 5.67.
Take `CCCc1ccc(N2CCN(S(=O)(=O)C3(C(=O)NO)CCOCC3)CC2)nc1` [Example 136]: the pKi on MMP-13 was 9.37; on MMP-14 it was 6.80.
As to `Cc1ccc(N2CCN(S(=O)(=O)C3(C(=O)NO)CCOCC3)CC2)nc1` [Example 138], the figures for the pKi at MMP-13 and on MMP-14 were 8.94 and 7.18, respectively.

The values are drawn from patent publication US20050209278A1, “Piperidinyl- and piperazinyl-sulfonylmethyl hydroxamic acids and their use as protease inhibitors” (priority 2002, published 2005).
